Assay results reported in patent US6688468B2, “Pharmaceutical kit for oxygen-sensitive drugs” (Pfizer Inc., priority 2001, dated 2004).

Assay: 18-week stability of Compound I tablets packaged in 60 cc HDPE bottles with HIS; degradation products by HPLC
Format: physicochemical
Conditions: Initial bulk, 0 weeks
Protocol: In an initial evaluation of oxygen absorbers, the bottles were sealed with heat induction seals (HIS). The following samples were prepared by placing the following materials in a round HDPE bottle (60 cc capacity) and sealing with a heat-induction seal:
Tablets were stored eighteen weeks under three different conditions: (1) 5° C./75% relative humidity (RH); (2) 40° C./75% RH; and (3) 50° C./20% RH. Air in the bottles was sampled using a gas tight syringe equipped with a septum seal as the foil was punctured. The sampled air was analyzed using a Mocon™ headspace analyzer (PAL Model 450 available from Mocon™ Inc., Minneapolis, Minn.). Each tablet was dissolved in 250 ml of a solution prepared by dissolving 21.6 g of octane sulfonic acid and 6.8 g of potassium phosphate in 1.0 liters of purified water and adjusting the pH to 3 with phosphoric acid followed by the addition of 818 mL of acetonitrile. Degradation products were identified by high pressure liquid chromatography (HPLC) (Waters sym C8 column, 15 cm×3.9 mm, nylon acrodisc filter, HPLC HP 1100 series, 20 μl injection volume, flow of 1 mL/min). The degradation products were compared against three known standards (Compounds I-1A′, I-1A″ and I-1B).

For `COc1ccc(C(C)C)cc1CN[C@@H]1C2CCN(CC2)[C@@H]1C(c1ccccc1)c1ccccc1` [Compound I], the “I-1A′” value was 0.000 Wt %, the “I-1A″” value was 0.300 Wt % and the I-1B was 0.027 Wt %. For the same molecule, the Total was 0.37%, the “Unknown (first Unknown column)” value was 0.01 Area % and the “Unknown (second Unknown column)” value was 0.03 Area %.
